23 compounds from US10570129B2 (Zoetis Services LLC, priority 2015, dated 2020) can be followed below.

Where two headings read alike, the source gives them in different places.

In experiment [1] the test system is D. immitis microfilariae. Nature of the experiment: Dirofilaria immitis, microfilariae (DiMF) in vitro motility assay. The class given is cell-based. Conditions: for minimal effective concentration: Dirofilaria immitis, 72 h, read-out: DiMF minimally effective dose (MEC).
Experiment [2] deals with Haemonchus contortus L3. Description: microbe, parasite or virus in culture. In kind it is cell-based. Conditions: for minimal effective concentration: Haemonchus contortus, 96 h, read-out: HcL3 Minimal Effective Concentration (MEC).

With `O=C(NCc1ccnc(Cl)c1)n1c2c(c3cc(F)c(Cl)cc31)CN(C/C=C/c1ccc(Cl)cc1)CC2` [Example 304, (E)-7-chloro-2-(3-(4-chlorophenyl)allyl)-N-((2-chloropyridin-4-yl)methyl)-8-fluoro-1,2,3,4-tetrahydro-5H-pyrido[4,3-b]indole-5-carboxamide], the minimal effective concentration in experiment [1] was determined as 18.2 µM; in experiment [2], 0.3 µM.

In the case of `COc1ccc(/C=C/CN2CCc3c(c4cc(OC(F)(F)F)ccc4n3C(=O)NCc3ccnc(Cl)c3)C2)cc1` [Example 394, (E)-N-((2-chloropyridin-4-yl)methyl)-2-(3-(4-methoxyphenyl)allyl)-8-(trifluoromethoxy)-1,2,3,4-tetrahydro-5H-pyrido[4,3-b]indole-5-carboxamide], the minimal effective concentration in experiment [1] was determined as 6.9 µM; in experiment [2], 1 µM.

In the case of `COc1ccc2c(c1)c1c(n2C(=O)NCc2ccnc(Cl)c2)CCN(C/C=C/c2ccc(Cl)cc2)C1` [Example 512, (E)-2-(3-(4-chlorophenyl)allyl)-N-((2-chloropyridin-4-yl)methyl)-8-methoxy-1,2,3,4-tetrahydro-5H-pyrido[4,3-b]indole-5-carboxamide], the minimal effective concentration was 10 µM in experiment [1] and 1 µM in experiment [2].

Regarding `O=C(NCc1ccnc(F)c1)n1c2c(c3cc(F)c(Cl)cc31)CN(C/C=C/c1cc(F)c(F)c(F)c1)CC2` [Example 315, (E)-7-chloro-8-fluoro-N-((2-fluoropyridin-4-yl)methyl)-2-(3-(3,4,5-trifluorophenyl)allyl)-1,2,3,4-tetrahydro-5H-pyrido[4,3-b]indole-5-carboxamide], the values for the minimal effective concentration in experiment [1] and in experiment [2] were 5.7 µM and 1 µM, respectively.

On to `O=C(NCc1ccnc(Cl)c1)n1c2c(c3c(C(F)(F)F)cccc31)CN(C/C=C/c1ccc(Cl)c(Cl)c1)CC2` [Example 159, (E)-N-((2-chloropyridin-4-yl)methyl)-2-(3-(3,4-dichlorophenyl)allyl)-9-(trifluoromethyl)-1,2,3,4-tetrahydro-5H-pyrido[4,3-b]indole-5-carboxamide], for which the minimal effective concentration in experiment [1] was 10 µM; in experiment [2], 18.2 µM.

With `N#Cc1cc2c3c(n(C(=O)NCc4ccnc(Cl)c4)c2cc1Cl)CCN(C/C=C/c1ccc(Cl)cc1)C3` [Example 177, (E)-7-chloro-2-(3-(4-chlorophenyl)allyl)-N-((2-chloropyridin-4-yl)methyl)-8-cyano-1,2,3,4-tetrahydro-5H-pyrido[4,3-b]indole-5-carboxamide], the figures for the minimal effective concentration in experiment [1] and in experiment [2] were 5.7 µM and 0.3 µM, respectively.

For `O=C(NCc1ccnc(F)c1)n1c2c(c3cc(C(F)(F)F)ccc31)CN(C/C=C/c1ccc(Cl)c(Cl)c1)CC2` [Example 422, (E)-2-(3-(3,4-dichlorophenyl)allyl)-N-((2-fluoropyridin-4-yl)methyl)-8-(trifluoromethyl)-1,2,3,4-tetrahydro-5H-pyrido[4,3-b]indole-5-carboxamide], the minimal effective concentration was 18.2 µM in experiment [1] and 10 µM in experiment [2].

In the case of `O=C(NCc1ccnc(Cl)c1)n1c2c(c3c(OC(F)(F)F)cccc31)CN(C/C=C/c1ccc(C(F)(F)F)cc1)CC2` [Example 363, (E)-N-((2-chloropyridin-4-yl)methyl)-9-(trifluoromethoxy)-2-(3-(4-(trifluoro-methyl)phenyl)allyl)-1,2,3,4-tetrahydro-5H-pyrido[4,3-b]indole-5-carboxamide], the figures for the minimal effective concentration in experiment [1] and in experiment [2] were 33 µM and above 100 µM, respectively.

On to `CSc1ccc2c(c1)c1c(n2C(=O)NCc2ccnc(Cl)c2)CCN(C/C=C/c2ccc(F)cc2)C1` [Example 448, (E)-N-((2-chloropyridin-4-yl)methyl)-2-(3-(4-fluorophenyl)allyl)-8-(methylthio)-1,2,3,4-tetrahydro-5H-pyrido[4,3-b]indole-5-carboxamide], for which the minimal effective concentration in experiment [1] stood at 3.3 µM; in experiment [2] it was 1.3 µM.

With `N#Cc1ccc(/C=C/CN2CCc3c(c4cc5c(cc4n3C(=O)NCc3ccnc(Cl)c3)COC5)C2)cc1` [Example 479, (E)-N-((2-chloropyridin-4-yl)methyl)-8-(3-(4-cyanophenyl)allyl)-1,3,6,7,8,9-hexahydro-5H-furo[3,4-f]pyrido[4,3-b]indole-5-carboxamide], the minimal effective concentration in experiment [1] was above 100 µM; in experiment [2], 1 µM.

Turning to “N-((2-chloropyridin-4-yl)methyl)-2-((6-fluoronaphthalen-2-yl)methyl)-7-(trifluoromethoxy)-1,2,3,4-tetrahydro-5H-pyrido[4,3-b]indole-5-carboxamide [Example 366]”, the “DiMF minimally effective dose (MEC)” value in experiment [1] (decrease in microfilariae motility by subjective visual assessment, observed at 72 hours) came to 2.4 µM. For the same compound, the “HcL3 Minimal Effective Concentration (MEC)” value in experiment [2] was above 100 µM.

Take `O=C(NCc1ccnc(Cl)c1)n1c2c(c3ccc(Br)cc31)CN(C/C=C/c1ccc(Cl)c(F)c1)CC2` [Example 437, (E)-7-bromo-2-(3-(4-chloro-3-fluorophenyl)allyl)-N-((2-chloropyridin-4-yl)methyl)-1,2,3,4-tetrahydro-5H-pyrido[4,3-b]indole-5-carboxamide]: the minimal effective concentration was determined as 10 µM in experiment [1] and 1 µM in experiment [2].

Take `O=C(NCc1ccnc(Cl)c1)n1c2c(c3cc(OC(F)(F)F)c(F)cc31)CN(C/C=C/c1ccc(Cl)cc1)CC2` [Example 495, (E)-2-(3-(4-chlorophenyl)allyl)-N-((2-chloropyridin-4-yl)methyl)-7-fluoro-8-(trifluoromethoxy)-1,2,3,4-tetrahydro-5H-pyrido[4,3-b]indole-5-carboxamide]: the results for the minimal effective concentration in experiment [1] and in experiment [2] were 10 µM and 1 µM, respectively.

On to `O=C(NCc1ccnc(Cl)c1)n1c2c(c3cc(OC(F)(F)F)ccc31)CN(C/C=C/c1ccc(F)cc1)CC2` [Example 393, (E)-N-((2-chloropyridin-4-yl)methyl)-2-(3-(4-fluorophenyl)allyl)-8-(trifluoromethoxy)-1,2,3,4-tetrahydro-5H-pyrido[4,3-b]indole-5-carboxamide], for which the minimal effective concentration in experiment [1] was determined as 1.5 µM; in experiment [2] it was 0.4 µM.

As to `O=C(NCc1ccnc(F)c1)n1c2c(c3ccc(OC(F)(F)F)cc31)CN(C/C=C/c1ccc(Cl)cc1F)CC2` [Example 371, (E)-2-(3-(4-chloro-2-fluorophenyl)allyl)-N-((2-fluoropyridin-4-yl)methyl)-7-(trifluoromethoxy)-1,2,3,4-tetrahydro-5H-pyrido[4,3-b]indole-5-carboxamide], the minimal effective concentration in experiment [1] was 24.5 µM; in experiment [2], 1.3 µM.

Take `N#Cc1ccc(/C=C/CN2CCc3c(c4cc(C#N)ccc4n3C(=O)NCc3ccnc(Cl)c3)C2)cc1` [Example 91, (E)-N-((2-chloropyridin-4-yl)methyl)-8-cyano-2-(3-(4-cyanophenyl)allyl)-1,2,3,4-tetrahydro-5H-pyrido[4,3-b]indole-5-carboxamide]: the minimal effective concentration is 13.5 µM in experiment [1] and 0.4 µM in experiment [2].

On to `O=C(NCc1ccnc(Cl)c1)n1c2c(c3cc(F)c(Cl)cc31)CN(C/C=C/c1ccc(F)cc1F)CC2` [Example 299, (E)-7-chloro-N-((2-chloropyridin-4-yl)methyl)-2-(3-(2,4-difluorophenyl)-allyl)-8-fluoro-1,2,3,4-tetrahydro-5H-pyrido[4,3-b]indole-5-carboxamide], for which the minimal effective concentration turned out to be 1.8 µM in experiment [1] and 0.4 µM in experiment [2].

As to `N#Cc1ccc2c(c1)c1c(n2C(=O)NCc2ccnc(Cl)c2)CCN(C/C=C/c2ccc(Br)c(F)c2)C1` [Example 85, (E)-2-(3-(4-bromo-3-fluorophenyl)allyl)-N-((2-chloropyridin-4-yl)methyl)-8-cyano-1,2,3,4-tetrahydro-5H-pyrido[4,3-b]indole-5-carboxamide], the minimal effective concentration was above 100 µM in experiment [1] and 0.1 µM in experiment [2].

Take `N#Cc1ccc2c3c(n(C(=O)NCc4ccnc(F)c4)c2c1)CCN(C/C=C/c1cc(F)cc(OC(F)(F)F)c1)C3` [Example 54, (E)-7-cyano-2-(3-(3-fluoro-5-(trifluoromethoxy)phenyl)allyl)-N-((2-fluoro-pyridin-4-yl)methyl)-1,2,3,4-tetrahydro-5H-pyrido[4,3-b]indole-5-carboxamide]: the minimal effective concentration was 10 µM in experiment [1] and above 100 µM in experiment [2].

With `O=C(NCc1ccnc(Cl)c1)N1c2ccc(Cl)cc2C2CN(C/C=C/c3ccc(Cl)cc3)CCC21` (stereo not shown) [Example 516, (E)-8-chloro-2-(3-(4-chlorophenyl)allyl)-N-((2-chloropyridin-4-yl)methyl)-1,2,3,4,4a,9b-hexahydro-5H-pyrido[4,3-b]indole-5-carboxamide], the “DiMF minimally effective dose (MEC)” value in experiment [1] came out at 10.0 µM. The “HcL3 Minimal Effective Concentration (MEC)” value in experiment [2] worked out at 0.3 µM.

Take `Cc1cccc2c1c1c(n2C(=O)NCc2ccnc(Cl)c2)CCN(C/C=C/c2ccc(F)cc2)C1` [Example 149, (E)-N-((2-chloropyridin-4-yl)methyl)-2-(3-(4-fluorophenyl)allyl)-9-methyl-1,2,3,4-tetrahydro-5H-pyrido[4,3-b]indole-5-carboxamide]: the minimal effective concentration in experiment [1] stood at 10 µM; in experiment [2], 4.4 µM.

Take `O=C(NCc1ccnc(Cl)c1)n1c2c(c3ccc(OC(F)(F)F)cc31)CN(C/C=C/c1ccc(OC(F)(F)F)cc1)CC2` [Example 360, (E)-N-((2-chloropyridin-4-yl)methyl)-7-(trifluoromethoxy)-2-(3-(4-(trifluoro-methoxy)phenyl)allyl)-1,2,3,4-tetrahydro-5H-pyrido[4,3-b]indole-5-carboxamide]: the minimal effective concentration in experiment [1] was found to be 13.6 µM; in experiment [2], 7.7 µM.

As for `N#Cc1ccc2c(c1)c1c(n2C(=O)NCc2ccnc(Cl)c2)CCN(C/C=C/c2ccc(Br)cc2F)C1` [Example 73, (E)-2-(3-(4-bromo-2-fluorophenyl)allyl)-N-((2-chloropyridin-4-yl)methyl)-8-cyano-1,2,3,4-tetrahydro-5H-pyrido[4,3-b]indole-5-carboxamide], the minimal effective concentration in experiment [1] is above 100 µM; in experiment [2] it was 0.1 µM.
